# From ChEMBL document CHEMBL1177695, “Discovery and development of natural product-derived chemotherapeutic agents based on a medicinal chemistry approach” (J Nat Prod, 2010)
# Key:
# [1] = Cytotoxicity against human KBVIN cells after 3 days by sulforhodamine B assay; type: functional, cell-based; conditions: 72 h
# KB [2] = test: Selectivity ratio of EC50 for human KB cells to EC50 for vincristine-resistant human KB cells; type: functional
# KB [3] = test: Cytotoxicity against human KB cells; type: functional, cell-based
# [4] = Cytotoxicity against vincristine-resistant human KB/VCR cells overexpressing P-glycoprotein; type: functional, cell-based
# [5] = Cytotoxicity against human KB-7d cells expressing multidrug-resistant protein; type: functional, cell-based; conditions: KB7D
# [6] = Inhibition of tubulin polymerization
# KB [7] = test: Cytotoxicity against CPT-resistant human KB cells […] reduced level of topoisomerase; type: functional, cell-based
# [8] = Antitumor activity against rat Walker 256 cells allografted in rat at 2.5 mg/kg relative to control; type: functional
# Hep-2 (human) = test: Cytotoxicity against human Hep-2 cells; conditions: read-out: ED50 (the source's name)
# [9] = Therapeutic index, ratio of IC50 for human H9 cells to EC50 for HIV1; type: cell-based; conditions: read-out: TI
# [10] = test system: Human immunodeficiency virus 1; test: Antiviral activity against HIV1 infected in human H9 cells after 4 days by p24 antigen ELISA; type: functional, organism-based; conditions: Human immunodeficiency virus 1, H9, 96 h
# [11] = test system: Human immunodeficiency virus 1; test: Anti-HIV-1 activity in human H9 cells; conditions: H9, 96 h
# Tubulin = test: Inhibition of tubulin polymerization
# ZR-75-1 = test: Cytotoxicity against human ZR-75-1 cells after 72 hrs by sulforhodamine B assay; type: functional; conditions: ZR-75-1, 72 h, read-out: ED50 (the source's name)
# MCF7 = test: Cytotoxicity against human MCF7 cells after 72 hrs by sulforhodamine B assay; type: functional; conditions: MCF7, 72 h, read-out: ED50 (the source's name)
# MDA-MB-231 = test: Cytotoxicity against human MDA-MB-231 cells after 72 hrs by sulforhodamine B assay; type: functional; conditions: MDA-MB-231, 72 h, read-out: ED50 (the source's name)
# SK-BR-3 = test: Cytotoxicity against human SK-BR-3 cells after 72 hrs by sulforhodamine B assay; type: functional; conditions: SK-BR-3, 72 h, read-out: ED50 (the source's name)
# [12] = Therapeutic index, ratio of IC50 for human H9 cells to EC50 for multidrug-resistant HIV1 RTMDR1; type: cell-based; conditions: read-out: TI
# [13] = test system: Human immunodeficiency virus 1; test: Antiviral activity against multidrug-resistant HIV1 RTMDR1 infected in H9 cells assessed as inhibition of viral replication by p24 antigen ELISA; type: functional, organism-based; conditions: Human immunodeficiency virus 1, RTMDR1, H9
# H9 = test: Cytotoxicity against human H9 cells after 4 days by coulter counter; type: cell-based; conditions: Homo sapiens, H9, 96 h
# [14] = Therapeutic index, ratio of IC50 for human H9 cells to EC50 for HIV 3B; type: cell-based; conditions: read-out: TI
# PC-3 = test: Cytotoxicity against human PC3 cells after 2 days; type: functional, cell-based; conditions: PC-3, 48 h
# LNCaP = test: Cytotoxicity against human LNCAP cells after 2 days; type: functional, cell-based; conditions: 48 h
# OVCAR-3 = test: Antitumor activity against human OVCAR-3 cells xenografted in mouse assessed as increase in mouse life span; type: functional, cell-based
# P388 = test: Antitumor activity against mouse P388 cells allografted in mouse at 8 mg/kg relative to control; type: functional
# A549 = test: Cytotoxicity against human A549 cells; type: functional, cell-based; conditions: a549
smiles,measurement,setting,value
"CCC1=C(O)c2c(oc(-c3ccc(C)cc3)cc2=O)C(CC)(CC)C1=O [6,8,8-TRIETHYL-4-METHYL DESMOSDUMOTIN B]",EC50,[1],0.03 µg/mL
same,Ratio EC50,KB [2],>460
COc1ccc2c(c1)C(=O)CCc1cc(OC)c(OC)c(OC)c1-2,EC50,KB [3],0.057 µg/mL
same,EC50,[4],> 0.063 µg/mL
same,EC50,[5],0.025 µg/mL
same,IC50,[6],1000 nM
same,EC50,KB [7],0.052 µg/mL
C=C(C)C(=O)O[C@H]1C/C(C)=C\[C@@]2(OCC)C=C(C)[C@H](O2)[C@H]2OC(=O)C(=C)[C@@H]21 [PHANTOMOLIN],T/C,[8],378%
C[C@@H]1C[C@H]2OC(=O)[C@@H](C)[C@H]2[C@H](O)[C@]2(C)C(=O)C=C[C@@H]12,EC50,Hep-2 (human),0.8 µg/mL
C=C(C)[C@@H]1CC[C@]2(C(=O)O)CC[C@]3(C)[C@H](CC[C@@H]4[C@@]5(C)CC[C@H](OC(=O)CCCC(=O)O)C(C)(C)[C@@H]5CC[C@]43C)[C@@H]12,selectivity ratio,[9],292
same,IC50,[10],12800 nM
same,EC50,[11],44 nM
Cc1cnc2[nH]c(-c3cccc(Cl)c3)cc(=O)c2c1,IC50,Tubulin,720 nM
COc1cccc2c1ccc1c3occ(C)c3c(=O)oc21,EC50,ZR-75-1,0.1 µg/mL
same,EC50,MCF7,2.3 µg/mL
same,EC50,MDA-MB-231,6.4 µg/mL
same,EC50,SK-BR-3,0.2 µg/mL
Cc1cc(=O)c2ccc3c(c2o1)[C@@H](OC(=O)C12CCC(C)(C(=O)O1)C2(C)C)[C@@H](OC(=O)C12CCC(C)(C(=O)O1)C2(C)C)C(C)(C)O3 (some centres not stated),selectivity ratio,[12],63
same,EC50,[13],190 nM
same,IC50,H9,11800 nM
same,selectivity ratio,[14],8600
CCOC(=O)/C=C/C(C(=O)/C=C/c1ccc(OC)c(OC)c1)=C(O)\C=C\c1ccc(OC)c(OC)c1,IC50,PC-3,1000 nM
same,IC50,LNCaP,200 nM
O=c1cc(-c2ccccc2F)[nH]c2cc3c(cc12)OCO3,IC50,[6],850 nM
same,Activity,OVCAR-3,130%
C=C1C(=O)O[C@@H]2C[C@@H](C)[C@@H]3C=CC(=O)[C@@]3(C)[C@@H](O)[C@H]12 [HELENALIN],EC50,Hep-2 (human),0.08 µg/mL
same,T/C,P388,162%
same,T/C,[8],316%
CCc1cc(=O)c2ccc3c(c2o1)[C@@H](OC(=O)C12CCC(C)(C(=O)O1)C2(C)C)[C@@H](OC(=O)C12CCC(C)(C(=O)O1)C2(C)C)C(C)(C)O3 (some centres not stated),selectivity ratio,[12],718
same,EC50,[13],60 nM
same,IC50,H9,37200 nM
same,selectivity ratio,[14],116000
C=C(C)[C@@H]1CC[C@]2(C(=O)O)CC[C@]3(C)[C@H](CC[C@@H]4[C@@]5(C)CC[C@H](OC(=O)CC(C)(C)CC(=O)O)C(C)(C)[C@@H]5CC[C@]43C)[C@@H]12,selectivity ratio,[9],2000
same,IC50,[10],4500 nM
same,EC50,[11],3 nM
C=C1C(=O)O[C@@H]2C[C@@H](C)[C@@H]3[C@@H]4CC(=O)[C@@]3(C[C@H]12)[C@@]1(C4)C(=O)O[C@@H]2C[C@@H](C)[C@@H]3C=CC(=O)[C@@]3(C)[C@@H](O)[C@@H]21 [MICROLENIN],T/C,[8],173%
"CCC1=C(O)c2c(oc(-c3ccc(CC)cc3)cc2=O)C(CC)(CC)C1=O [6,8,8-TRIETHYL-4-ETHYL DESMOSDUMOTIN B]",EC50,[1],0.025 µg/mL
same,Ratio EC50,KB [2],320
C=C1C(=O)O[C@H]2[C@H]1[C@@H](OC(=O)/C(C)=C/C)C/C(C)=C/C(=O)/C=C(/C)[C@@H]2O [MOLEPHANTININ],T/C,[8],397%
COc1cccc(-c2cc(=O)c3ccc(C)nc3[nH]2)c1,IC50,Tubulin,750 nM
COc1ccc2c(CNCCCCCCO)cc3cc4c(cc3c2c1)OCO4,IC50,A549,160 nM
C=C1C(=O)O[C@@H]2C[C@@H](C)[C@@H]3CCC(=O)[C@@]3(C)[C@@H](O)[C@H]12,EC50,Hep-2 (human),3.84 µg/mL
